Test system: 168753-222-R-J1-PDC complex spheroid viability
Assay: Anticancer human tumor 168753-222-R-J1-PDC patient-derived bladder carcinoma cell line growth inhibition [CLK]
Conditions: second compound 0.0316 µM; first compound 3.16 µM; stronger effect = lower value
Text: A high-throughput screen of multi-cell type tumor spheroids was designed to identify active combinations of […] and targeted small molecules. Complex spheroids include a stromal component modeled by human endothelial cells (HUVEC) and fibroblasts modeled by human mesenchymal stem cells (MSCs). The concentration ranges selected for each drug and investigational agent were based upon clinically achievable concentrations if the clinical Cmax of the agent was known.
Compounds. The drugs and investigational agents: cirtuvivint (SM08502; NSC835563), CC-671 (NSC850746), vemurafenib (NSC761431), tapotoclax (NSC804041), sotorasib (NSC818433), adagrasib (NSC831453), MRTX-1133 (NSC836407), BAY2416964 (NSC825713), copanlisib (NSC816437), inavolisib (NSC800729), abemaciclib (NSC768073), osimertinib (NSC779217), entinostat (NSC756642), eltanexor (KPT-8602, NSC794443), venetoclax (NSC766270), ceralasertib (NSC777638), bortezomib (NSC756655), olaparib (NSC753686), talazoparib (NSC767125), alisertib (NSC759677), peposertib (NSC802822), gemcitabine (NSC613327), 5-fluorouracil (NSC19893), SN-38 (NSC673596), oxaliplatin (NSC266046), paclitaxel (NSC125973), and doxorubicin (NSC123127), were obtained from the National Cancer Institute (NCI) Developmental Therapeutics Program Chemical Repository. The FDA-approved anticancer drug set is available from the Developmental Therapeutics Program at https://dtp.cancer.gov/organization/dscb/obtaining/available plates.htm. […] The stock solutions were prepared in dimethyl sulfoxide (DMSO, Sigma-Aldrich, St. Louis, MO, cat. D2650), except for the platinum complexes which were prepared in saline (Quality Biological, Gaithersburg, MD, cat. 114-055-101), at 800-fold the tested concentration and stored at -70 degrees C prior to their use. All drugs and investigational agents were tested over a range starting from a high concentration at or near the clinical Cmax and decreasing in half-log increments. If the clinical Cmax for an agent had not been determined, the highest concentration tested was 10 microM.
Cell Culture. All cells were maintained in an incubator at 37 degrees C and 5% CO2 with 95% humidity. The PDC lines were cultured according to standard operating procedures established by the NCI PDMR. Briefly, all PDCs were thawed and cultured in Matrigel-coated flasks prepared with a working solution of 1X Ham's F-12 nutrient mix, without supplementation (Invitrogen, Waltham, MA, cat. 11765054), 100 U/mL penicillin-streptomycin (Invitrogen, cat. 15140122), and 2.5% Matrigel (Corning Inc., Corning, NY, cat. 354248) for the first three passages. The 947758-054-R-J2-PDC line was cultured in 6B/Colon 1A media, which includes advanced DMEM/F-12 (Thermo Fisher Scientific, cat. 12634028), 10 mM HEPES (Thermo Fisher Scientific, cat. 15630080), 1X GlutaMAX supplement (Thermo Fisher Scientific, cat. 35050061), 0.1 mg/mL primocin (InvivoGen, cat. ant-pm-2), 10% defined fetal bovine serum, heat inactivated (HyClone Laboratories Inc., cat. SH30070.03HI), 1.25 mM N-Acetyl-L-cysteine (Sigma-Aldrich, cat. A9165), 10 mM nicotinamide (Sigma-Aldrich, cat. N0636), 1X B-27 supplement (Thermo Fisher Scientific, cat. 17504044), 1X N-2 supplement (Thermo Fisher Scientific, cat. 17502048), and 10 microM Y-27632 dihydrochloride (Tocris Bioscience, cat. 1254). The 876862-298-R-J1-PDC was cultured in 6E media, which includes all 6B/Colon 1A media components plus 50% L-WRN conditioned media (ATCC, cat. CRL-3276), 50 ng/mL recombinant human EGF recombinant protein (hEGF; Thermo Fisher Scientific, cat. PHG0311), 10 ng/mL recombinant human fibroblast growth factor 10 (hGFG-10; PeproTech, cat. 100-26), 1 ng/mL recombinant human fibroblast growth factor 2 (hFGF-2; PeproTech, cat. 100-18B), and 1 µM prostaglandin E2 (PGE2; Tocris, cat. 2296). The 227483-062-R1-J1-PDC line was cultured in Panc media, containing all 6E components except hFGF-2, with the addition of 500 nM SB-431542 (Selleckchem, cat. S1067) and 10 nM gastrin (Tocris, cat. 3006). […]
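Note: luminescence signal used as surrogate for viable cell amount; viability measured after seven days of drug exposure; 100% = DMSO vehicle control wells.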

Row | SMILES | viability, T/C [%]
1 | C=C(F)C(=O)N1CCN(c2nc(OCC3CCCN3C)nc3c2CCN(c2cccc4cccc(Cl)c24)C3)CC1CC#N (configuration not stated) + CN1CCN(c2cc(C(=O)Nc3cc4cc(-c5cnn(C)c5)ccc4cn3)ccn2)CC1 | 51.4
2 | CC(CO)NC(=O)c1cc(-c2ccc(Cl)cc2)nn(-c2cnn(C)c2)c1=O (configuration not stated) + CN1CCN(c2cc(C(=O)Nc3cc4cc(-c5cnn(C)c5)ccc4cn3)ccn2)CC1 | 117

Same assay, conditions: second compound 0.0316 µM; first compound 10 µM; stronger effect = lower value

Row | SMILES | viability, T/C [%]
3 | C#Cc1c(F)ccc2cc(O)cc(-c3ncc4c(N5CC6CCC(C5)N6)nc(OCC56CCCN5CC(F)C6)nc4c3F)c12 (configuration not stated) + CN1CCN(c2cc(C(=O)Nc3cc4cc(-c5cnn(C)c5)ccc4cn3)ccn2)CC1 | 70.3
4 | C=C(F)C(=O)N1CCN(c2nc(OCC3CCCN3C)nc3c2CCN(c2cccc4cccc(Cl)c24)C3)CC1CC#N (configuration not stated) + CN1CCN(c2cc(C(=O)Nc3cc4cc(-c5cnn(C)c5)ccc4cn3)ccn2)CC1 | 0.91
5 | CC(CO)NC(=O)c1cc(-c2ccc(Cl)cc2)nn(-c2cnn(C)c2)c1=O (configuration not stated) + CN1CCN(c2cc(C(=O)Nc3cc4cc(-c5cnn(C)c5)ccc4cn3)ccn2)CC1 | 88.2

Same assay, conditions: second compound 0.1 µM; first compound 0.0316 µM; stronger effect = lower value

Row | SMILES | viability, T/C [%]
6 | C#Cc1c(F)ccc2cc(O)cc(-c3ncc4c(N5CC6CCC(C5)N6)nc(OCC56CCCN5CC(F)C6)nc4c3F)c12 (configuration not stated) + CN1CCN(c2cc(C(=O)Nc3cc4cc(-c5cnn(C)c5)ccc4cn3)ccn2)CC1 | 77.7
7 | C=C(F)C(=O)N1CCN(c2nc(OCC3CCCN3C)nc3c2CCN(c2cccc4cccc(Cl)c24)C3)CC1CC#N (configuration not stated) + CN1CCN(c2cc(C(=O)Nc3cc4cc(-c5cnn(C)c5)ccc4cn3)ccn2)CC1 | 58.7
8 | CC(CO)NC(=O)c1cc(-c2ccc(Cl)cc2)nn(-c2cnn(C)c2)c1=O (configuration not stated) + CN1CCN(c2cc(C(=O)Nc3cc4cc(-c5cnn(C)c5)ccc4cn3)ccn2)CC1 | 87.2

Same assay, conditions: second compound 0.1 µM; first compound 0.1 µM; stronger effect = lower value

Row | SMILES | viability, T/C [%]
9 | C#Cc1c(F)ccc2cc(O)cc(-c3ncc4c(N5CC6CCC(C5)N6)nc(OCC56CCCN5CC(F)C6)nc4c3F)c12 (configuration not stated) + CN1CCN(c2cc(C(=O)Nc3cc4cc(-c5cnn(C)c5)ccc4cn3)ccn2)CC1 | 64.7
10 | C=C(F)C(=O)N1CCN(c2nc(OCC3CCCN3C)nc3c2CCN(c2cccc4cccc(Cl)c24)C3)CC1CC#N (configuration not stated) + CN1CCN(c2cc(C(=O)Nc3cc4cc(-c5cnn(C)c5)ccc4cn3)ccn2)CC1 | 46.7
11 | CC(CO)NC(=O)c1cc(-c2ccc(Cl)cc2)nn(-c2cnn(C)c2)c1=O (configuration not stated) + CN1CCN(c2cc(C(=O)Nc3cc4cc(-c5cnn(C)c5)ccc4cn3)ccn2)CC1 | 81.8

Same assay, conditions: second compound 0.1 µM; first compound 0.316 µM; stronger effect = lower value

Row | SMILES | viability, T/C [%]
12 | C#Cc1c(F)ccc2cc(O)cc(-c3ncc4c(N5CC6CCC(C5)N6)nc(OCC56CCCN5CC(F)C6)nc4c3F)c12 (configuration not stated) + CN1CCN(c2cc(C(=O)Nc3cc4cc(-c5cnn(C)c5)ccc4cn3)ccn2)CC1 | 63.9
13 | C=C(F)C(=O)N1CCN(c2nc(OCC3CCCN3C)nc3c2CCN(c2cccc4cccc(Cl)c24)C3)CC1CC#N (configuration not stated) + CN1CCN(c2cc(C(=O)Nc3cc4cc(-c5cnn(C)c5)ccc4cn3)ccn2)CC1 | 63.5
14 | CC(CO)NC(=O)c1cc(-c2ccc(Cl)cc2)nn(-c2cnn(C)c2)c1=O (configuration not stated) + CN1CCN(c2cc(C(=O)Nc3cc4cc(-c5cnn(C)c5)ccc4cn3)ccn2)CC1 | 64.1

Same assay, conditions: second compound 0.1 µM; first compound 1 µM; stronger effect = lower value

Row | SMILES | viability, T/C [%]
15 | C#Cc1c(F)ccc2cc(O)cc(-c3ncc4c(N5CC6CCC(C5)N6)nc(OCC56CCCN5CC(F)C6)nc4c3F)c12 (configuration not stated) + CN1CCN(c2cc(C(=O)Nc3cc4cc(-c5cnn(C)c5)ccc4cn3)ccn2)CC1 | 64.2
16 | C=C(F)C(=O)N1CCN(c2nc(OCC3CCCN3C)nc3c2CCN(c2cccc4cccc(Cl)c24)C3)CC1CC#N (configuration not stated) + CN1CCN(c2cc(C(=O)Nc3cc4cc(-c5cnn(C)c5)ccc4cn3)ccn2)CC1 | 56.3
17 | CC(CO)NC(=O)c1cc(-c2ccc(Cl)cc2)nn(-c2cnn(C)c2)c1=O (configuration not stated) + CN1CCN(c2cc(C(=O)Nc3cc4cc(-c5cnn(C)c5)ccc4cn3)ccn2)CC1 | 73.3

Same assay, conditions: second compound 0.1 µM; first compound 3.16 µM; stronger effect = lower value

Row | SMILES | viability, T/C [%]
18 | C#Cc1c(F)ccc2cc(O)cc(-c3ncc4c(N5CC6CCC(C5)N6)nc(OCC56CCCN5CC(F)C6)nc4c3F)c12 (configuration not stated) + CN1CCN(c2cc(C(=O)Nc3cc4cc(-c5cnn(C)c5)ccc4cn3)ccn2)CC1 | 37.4
19 | C=C(F)C(=O)N1CCN(c2nc(OCC3CCCN3C)nc3c2CCN(c2cccc4cccc(Cl)c24)C3)CC1CC#N (configuration not stated) + CN1CCN(c2cc(C(=O)Nc3cc4cc(-c5cnn(C)c5)ccc4cn3)ccn2)CC1 | 21.8
20 | CC(CO)NC(=O)c1cc(-c2ccc(Cl)cc2)nn(-c2cnn(C)c2)c1=O (configuration not stated) + CN1CCN(c2cc(C(=O)Nc3cc4cc(-c5cnn(C)c5)ccc4cn3)ccn2)CC1 | 58.6

Same assay, conditions: second compound 0.1 µM; first compound 10 µM; stronger effect = lower value

Row | SMILES | viability, T/C [%]
21 | C#Cc1c(F)ccc2cc(O)cc(-c3ncc4c(N5CC6CCC(C5)N6)nc(OCC56CCCN5CC(F)C6)nc4c3F)c12 (configuration not stated) + CN1CCN(c2cc(C(=O)Nc3cc4cc(-c5cnn(C)c5)ccc4cn3)ccn2)CC1 | 38
22 | C=C(F)C(=O)N1CCN(c2nc(OCC3CCCN3C)nc3c2CCN(c2cccc4cccc(Cl)c24)C3)CC1CC#N (configuration not stated) + CN1CCN(c2cc(C(=O)Nc3cc4cc(-c5cnn(C)c5)ccc4cn3)ccn2)CC1 | 0.32
23 | CC(CO)NC(=O)c1cc(-c2ccc(Cl)cc2)nn(-c2cnn(C)c2)c1=O (configuration not stated) + CN1CCN(c2cc(C(=O)Nc3cc4cc(-c5cnn(C)c5)ccc4cn3)ccn2)CC1 | 39.6

Same assay, conditions: second compound 0.316 µM; first compound 0.0316 µM; stronger effect = lower value

Row | SMILES | viability, T/C [%]
24 | C#Cc1c(F)ccc2cc(O)cc(-c3ncc4c(N5CC6CCC(C5)N6)nc(OCC56CCCN5CC(F)C6)nc4c3F)c12 (configuration not stated) + CN1CCN(c2cc(C(=O)Nc3cc4cc(-c5cnn(C)c5)ccc4cn3)ccn2)CC1 | 14.7
25 | C=C(F)C(=O)N1CCN(c2nc(OCC3CCCN3C)nc3c2CCN(c2cccc4cccc(Cl)c24)C3)CC1CC#N (configuration not stated) + CN1CCN(c2cc(C(=O)Nc3cc4cc(-c5cnn(C)c5)ccc4cn3)ccn2)CC1 | 15.6
26 | CC(CO)NC(=O)c1cc(-c2ccc(Cl)cc2)nn(-c2cnn(C)c2)c1=O (configuration not stated) + CN1CCN(c2cc(C(=O)Nc3cc4cc(-c5cnn(C)c5)ccc4cn3)ccn2)CC1 | 19.4

Same assay, conditions: second compound 0.316 µM; first compound 0.1 µM; stronger effect = lower value

Row | SMILES | viability, T/C [%]
27 | C#Cc1c(F)ccc2cc(O)cc(-c3ncc4c(N5CC6CCC(C5)N6)nc(OCC56CCCN5CC(F)C6)nc4c3F)c12 (configuration not stated) + CN1CCN(c2cc(C(=O)Nc3cc4cc(-c5cnn(C)c5)ccc4cn3)ccn2)CC1 | 14.6
28 | C=C(F)C(=O)N1CCN(c2nc(OCC3CCCN3C)nc3c2CCN(c2cccc4cccc(Cl)c24)C3)CC1CC#N (configuration not stated) + CN1CCN(c2cc(C(=O)Nc3cc4cc(-c5cnn(C)c5)ccc4cn3)ccn2)CC1 | 13
29 | CC(CO)NC(=O)c1cc(-c2ccc(Cl)cc2)nn(-c2cnn(C)c2)c1=O (configuration not stated) + CN1CCN(c2cc(C(=O)Nc3cc4cc(-c5cnn(C)c5)ccc4cn3)ccn2)CC1 | 13.6

Same assay, conditions: second compound 0.316 µM; first compound 0.316 µM; stronger effect = lower value

Row | SMILES | viability, T/C [%]
30 | C#Cc1c(F)ccc2cc(O)cc(-c3ncc4c(N5CC6CCC(C5)N6)nc(OCC56CCCN5CC(F)C6)nc4c3F)c12 (configuration not stated) + CN1CCN(c2cc(C(=O)Nc3cc4cc(-c5cnn(C)c5)ccc4cn3)ccn2)CC1 | 11.8
31 | C=C(F)C(=O)N1CCN(c2nc(OCC3CCCN3C)nc3c2CCN(c2cccc4cccc(Cl)c24)C3)CC1CC#N (configuration not stated) + CN1CCN(c2cc(C(=O)Nc3cc4cc(-c5cnn(C)c5)ccc4cn3)ccn2)CC1 | 11.8
32 | CC(CO)NC(=O)c1cc(-c2ccc(Cl)cc2)nn(-c2cnn(C)c2)c1=O (configuration not stated) + CN1CCN(c2cc(C(=O)Nc3cc4cc(-c5cnn(C)c5)ccc4cn3)ccn2)CC1 | 16.8

Source: PubChem BioAssay AID2060626 (Molecular Pharmacology Branch, DTP, NCI, 2025)
